Experimental data reported in patent US20210361549A1, “ANTIPERSPIRANT” (MANDOM CORPORATION, priority 2018, published 2021).

Experiments:
[1] = tested on: secretory duct of the sweat gland (whole sweat glands); test: Test Example 1: time-lapse imaging of isolated whole sweat glands, moving distance of nuclei after pyrocarpin stimulation; type: cell-based, human; conditions: for movement of the secretory duct of the sweat gland: observed in the time-lapse photographed image, antiperspirant contacted with whole sweat glands
Method: As skin tissues, skin tissues which were refrigerated immediately after isolating from living donors and stored at 4° C. for 15 hours were used. The skin tissues were immersed in PBS containing 10 μM staining agent (Neutral Red), to label the sweat glands included in the skin tissues. Next, the dermis of each of the skin tissues including the staining agent was finely cut to obtain dermal segments. Whole sweat glands were collected from the dermal segments by using tweezers under an optical microscope.
The whole sweat glands obtained in Test Example 1(1) were immersed in the staining reagent mixture obtained in Production Example 1 at room temperature (24° C.) for 30 minutes, to stain the whole sweat glands. The stained whole sweat glands were washed with PBS.
The washed whole sweat glands obtained in Test Example 1(2) were allowed to stand on a glass bottom dish under a stereoscopic microscope manufactured by Leica under the trade name of M125. The collagen-containing liquid obtained in Production Example 2 was added dropwise to the whole sweat glands that were allowed to stand on the glass bottom dish. Next, the above-mentioned glass bottom dish was incubated at 37° C. for 5 minutes to gelate the collagen type I-A contained in the collagen-containing liquid placed on the whole sweat glands. Thereafter, 300 μL of PBS was added onto the above-mentioned whole sweat glands so as not to dry the whole sweat glands. Thus, the whole sweat glands were held on the glass bottom dish used as a support with the collagen type I-A so that the position of each of the whole sweat glands was retained, to obtain an observation sample.
While adhesion of the whole sweat glands to the glass bottom dish with the gelated collagen type I-A was confirmed under the stereoscopic microscope, an aliquot of Dulbecco's phosphate buffer [manufactured by Gibco, Catalog No. 14190-144] was added to the glass bottom dish used as a support.
The antiperspirant obtained in Example 1 in an amount of 3 μL was contacted with the whole sweat glands on the glass bottom dish in the observation sample. The observation of the whole sweat glands on the glass bottom dish with the time-lapse imaging was initiated by using a confocal laser scanning microscope for biological uses [inverted microscope manufactured by Olympus Corporation under the trade name of IX-83 equipped with a device manufactured by Olympus Corporation under the trade name of FV 1200]. At that time, the whole sweat glands were visualized by detecting fluorescence derived from the nuclear staining reagent bound to the nuclei and fluorescence derived from the cytoskeleton-staining reagent bound to the cytoskeleton. After 600 seconds passed from the initiation of the observation, 30 μL of the sweat gland-stimulating agent obtained in Production Example 3 was contacted with the whole sweat glands on the glass bottom dish, and thereafter the observation with the time-lapse imaging was continued. […]
Next, five cells were selected from a cell group in the lumen of the secretory duct in the time-lapse photographed image of the whole sweat glands, and five cells were selected from a cell group in the outer periphery of the secretory duct. […] In order to measure a moving distance of the nuclei of the cell, firstly changes (differences) in coordinates between consecutive frames were calculated by using X-coordinate and Y-coordinate of the nuclei of each cell in accordance with the formulae (XI) and (XII): […]

[2] = tested on: armpit sweating of expert panelists; test: Test Example 3: degree of sweating scored by expert panelists after application to armpit and light exercise; type: in vivo, human; conditions: applied to each armpit of ten expert panelists, light exercise; compared with control sample of Comparative Example 1 (PBS)
Description: The antiperspirant obtained in Example 1 is applied to each armpit of ten expert panelists having the same proficiency in evaluation skill, and then the expert panelists are subjected to a light exercise. Thereafter, each of the expert panelists gives a score of the degree of sweating on the basis of the following criteria for evaluation. In addition, each of the expert panelists gives a score of the degree of sweating in the same manner as in the above except that the control sample of Comparative Example 1 is used in place of the antiperspirant obtained in Example 1. The average of the scores given by the expert panelists is calculated.
0 point: sweat in a large amount.
2 points: slightly sweat.

[3] = tested on: secretory duct of the sweat gland (whole sweat glands); test: Test Example 2: time-lapse imaging of isolated whole sweat glands, average moving distance of nuclei of secretory duct cells; type: cell-based, human; conditions: antiperspirant as prepared contacted first; stimulating agent of Production Example 4 (10 mM pyrocalpin); five cells; FIG. 3 to FIG. 8
Method: Each of the antiperspirants obtained in Examples 2 to 7 was contacted with the whole sweat glands respectively, and change of the average of moving distances of nuclei of cells of a secretory duct of the sweat gland was examined with passage of time. Whether or not nuclei of cells of the secretory duct of the sweat gland moved was determined based on the results shown in FIG. 3 to FIG. 8, and evaluated in accordance with the following criteria for evaluation. […] The maximum value of the average of moving distances of nuclei of cells of the secretory duct of the sweat gland exceeds 1 μm: the nuclei of cells of the secretory duct of the sweat glands are moved.

Molecule	movement of the secretory duct of the sweat gland [1]	average of the scores of the degree of sweating (0 to 4 points) [2]	movement of nuclei of cells of the secretory duct of the sweat gland (maximum of average of moving distances) [3]	further results
CC1(C(=O)O)CCC2(C)CCC3(C)C(=CC(=O)C4C5(C)CCC(OC6OC(C(=O)O)C(O)C(O)C6OC6OC(C(=O)O)C(O)C(O)C6O)C(C)(C)C5CCC43C)C2C1 (centres unmarked) [formula (X)]	the same tendency as the antiperspirant obtained in Example 1	the same tendency as the antiperspirant obtained in Example 1	–	–
C[C@H]1[C@H](C)CC[C@]2(C(=O)O)CC[C@]3(C)C(=CC[C@@H]4[C@@]5(C)CC[C@H](O)C(C)(C)[C@@H]5CC[C@]43C)[C@H]12 [Example 4, ursolic acid]	–	–	hardly moved	–
CC1(C)CC[C@]2(C(=O)O)CC[C@]3(C)C(=CC[C@@H]4[C@@]5(C)CC[C@H](O)C(C)(C)[C@@H]5CC[C@]43C)[C@@H]2C1 [Example 5, oleanolic acid]	–	–	hardly moved	–
CC1(C(=O)O)CCC2(C)CCC3(C)C(=CC(=O)C4C5(C)CCC(O)C(C)(C)C5CCC43C)C2C1 (centres unmarked) [formula (IX)]	the same tendency as the antiperspirant obtained in Example 1	the same tendency as the antiperspirant obtained in Example 1	–	–
CC1(C)[C@@H](O)CC[C@]2(C)[C@H]3C(=O)C=C4[C@@H]5C[C@@](C)(C(=O)O)CC[C@]5(C)CC[C@@]4(C)[C@]3(C)CC[C@@H]12 [Example 3, 18β-glycyrrhetinic acid]	–	–	hardly moved	–
CC1(C)[C@@H](O)CC[C@]2(C)[C@H]3C(=O)C=C4[C@H]5C[C@@](C)(C(=O)O)CC[C@]5(C)CC[C@@]4(C)[C@]3(C)CC[C@@H]12 [Example 2, 18α-glycyrrhetinic acid]	–	–	hardly moved	–
α-amylin [Example 6]	–	–	hardly moved	–
β-amylin [Example 7]	–	–	hardly moved	–
CC1(C(=O)O)CCC2(C)CCC3(C)C(=CC(=O)C4C5(C)CCC(OC(=O)CCC(=O)O)C(C)(C)C5CCC43C)C2C1 (centres unmarked) [Example 1]	suppressed	tends to be higher	–	movement of nuclei of the cells of the lumen of the secretory duct of the sweat gland ([1]; 3 μL antiperspirant contacted first, 30 μL sweat gland-stimulating agent (100 mM pyrocarpin) after 600 seconds, FIG. 2A white circle): hardly moved; movement of nuclei of the cells of the outer periphery of the secretory duct of the sweat gland ([1]; 3 μL antiperspirant contacted first, 30 μL sweat gland-stimulating agent (100 mM pyrocarpin) after 600 seconds, FIG. 2A white triangle): hardly moved
